Reference: publication PMC4648043, “Development of Small-Molecule Trypanosoma brucei N-Myristoyltransferase Inhibitors: Discovery and Optimisation of a Novel Binding Mode” (Chemmedchem, 2015)
Where two headings read alike, the source gives them in different places.

Experiments:
T. brucei = T. brucei parasite growth assay; assay type: cell-based, Trypanosoma brucei; settings: Trypanosoma brucei; mean of two or more determinations
Protocol: (§1) Parasite and NMT assays: These were carried out as described previously.[8–10]

hMRC5 = test: MRC5 cell assay; assay type: cell-based; settings: Homo sapiens, mean of two or more determinations
TbNMT = target: T1, TbNMT (Trypanosoma brucei brucei, UniProt Q388H8); test: biochemical; assay type: biochemical; settings: for LE TbNMT (ligand efficiency): calculated as 0.6 ln(IC50)/(heavy atom count); for IC50: mean of two or more determinations
T1 sequence (Q388H8 1-446): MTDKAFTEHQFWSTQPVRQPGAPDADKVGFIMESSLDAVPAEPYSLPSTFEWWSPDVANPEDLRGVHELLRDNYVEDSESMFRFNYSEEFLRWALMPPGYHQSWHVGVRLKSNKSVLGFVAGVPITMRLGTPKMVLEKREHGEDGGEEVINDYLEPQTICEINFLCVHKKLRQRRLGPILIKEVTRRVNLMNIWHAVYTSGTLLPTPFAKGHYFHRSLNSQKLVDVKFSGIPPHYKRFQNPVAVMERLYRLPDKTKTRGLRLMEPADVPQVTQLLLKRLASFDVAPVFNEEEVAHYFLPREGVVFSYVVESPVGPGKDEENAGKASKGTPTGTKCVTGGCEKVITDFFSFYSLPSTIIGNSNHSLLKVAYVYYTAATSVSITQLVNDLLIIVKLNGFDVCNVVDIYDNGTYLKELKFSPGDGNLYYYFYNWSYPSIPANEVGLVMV
Protocol: as §1

hNMT = target: T2, hNMT (Homo sapiens, UniProt P30419); test: human NMT enzyme inhibition assay; assay type: biochemical; settings: mean of two or more determinations
T2 sequence (P30419 1-496): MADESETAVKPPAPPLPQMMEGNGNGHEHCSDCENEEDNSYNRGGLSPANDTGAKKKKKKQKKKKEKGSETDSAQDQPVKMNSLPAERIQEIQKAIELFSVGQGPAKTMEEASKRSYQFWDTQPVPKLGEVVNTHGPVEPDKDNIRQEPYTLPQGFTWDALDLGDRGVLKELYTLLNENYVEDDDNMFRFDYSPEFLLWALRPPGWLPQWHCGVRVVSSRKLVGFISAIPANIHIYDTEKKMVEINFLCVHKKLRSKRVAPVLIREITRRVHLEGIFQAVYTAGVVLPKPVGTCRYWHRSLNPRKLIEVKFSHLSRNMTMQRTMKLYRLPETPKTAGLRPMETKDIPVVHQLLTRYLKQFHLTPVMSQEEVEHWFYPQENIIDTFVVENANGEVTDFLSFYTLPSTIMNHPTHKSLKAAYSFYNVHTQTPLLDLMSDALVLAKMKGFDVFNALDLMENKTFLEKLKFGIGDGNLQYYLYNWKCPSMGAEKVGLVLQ
Protocol: as §1

Structure (SMILES) | EC50 (T. brucei) | EC50 (hMRC5) | LE TbNMT (ligand efficiency) (TbNMT) | IC50 (TbNMT; read-out: IC50 TbNMT) | IC50 (hNMT) | IC50 (TbNMT; IC50 TbNMT) | improvement in potency at TbNMT (TbNMT; relative to parent/starting compound)
COc1cc(C2SCC(=O)N2Cc2ccccc2)ccc1O (stereo not drawn) [Compound 1, 3-Benzyl-2-(4-hydroxy-3-methoxyphenyl)thiazolidin-4-one] | > 50 µM | > 50 µM | 0.29 | 22 µM | 28 µM |  | 
COc1cc(C2SCC(=O)N2Cc2ccco2)ccc1O (stereo not drawn) [Compound 2, 3-(Furan-2-ylmethyl)-2-(4-hydroxy-3-methoxyphenyl)thiazolidin-4-one] | > 50 µM |  | 0.33 | 7.6 µM | > 100 µM |  | 
CCN1C(=O)CSC1c1ccc(O)c(OC)c1 (stereo not drawn) [Compound 3, 3-Ethyl-2-(4-hydroxy-3-methoxyphenyl)thiazolidin-4-one] |  |  |  | > 100 µM | > 100 µM |  | 
COc1cc(C2SCC(=O)N2c2ccccn2)ccc1O (stereo not drawn) [Compound 4, 2-(4-Hydroxy-3-methoxyphenyl)-3-(pyridin-2-yl)thiazolidin-4-one] |  |  |  | > 100 µM | > 100 µM |  | 
COc1cccc(C2SCC(=O)N2Cc2ccco2)c1 (stereo not drawn) [Compound 5, 3-(Furan-2-ylmethyl)-2-(3-methoxyphenyl)thiazolidin-4-one] |  |  |  | > 100 µM | > 100 µM |  | 
O=C1CSC(c2ccccn2)N1c1cccc(Cl)c1 (stereo not drawn) [Compound 7] |  |  | 0.36 | 13 µM | > 50 µM |  | 
O=C1CSC(c2ccccn2)N1c1ccc2ccccc2c1 (stereo not drawn) [Compound 8] |  |  |  | > 100 µM | > 100 µM |  | 
O=C1CSC(c2ccccn2)N1c1ccccc1 (stereo not drawn) [Compound 9] |  |  | 0.35 | 31 µM | 66 µM |  | 
O=C1CSC(c2ccccn2)N1c1ccc(Cl)cc1 (stereo not drawn) [Compound 10, 3-(4-Chlorophenyl)-2-(pyridin-2-yl)thiazolidin-4-one] | > 50 µM |  |  | > 100 µM | > 100 µM |  | 
O=C1CSC(c2ccccn2)N1c1ccccc1Cl (stereo not drawn) [Compound 11, 3-(2-Chlorophenyl)-2-(pyridin-2-yl)thiazolidin-4-one] | > 50 µM |  | 0.32 | 32 µM | > 100 µM |  | 
O=C1CSC(c2ccccc2)N1Cc1ccccn1 (stereo not drawn) [Compound 12, 2-Phenyl-3-(pyridin-2-ylmethyl)thiazolidin-4-one] | > 50 µM |  | 0.39 | 5.9 µM | > 100 µM |  | 
COc1cc(C2SCC(=O)N2Cc2ccccn2)ccc1O (stereo not drawn) [Compound 13, 2-(4-Hydroxy-3-methoxyphenyl)-3-(pyridin-2-ylmethyl)thiazolidin-4-one] | 14 µM |  | 0.42 |  | > 100 µM | 0.27 µM | 20 fold
CCOC(=O)C(C)N1C(=O)COc2ccccc21 (stereo not drawn) [Compound 15, Ethyl 2-(3-oxo-2H-benzo[b][1,4]oxazin-4(3H)-yl)propanoate] |  |  |  | > 100 µM | > 100 µM |  | 
CCOC(=O)CCN1C(=O)COc2ccccc21 [Compound 16, Ethyl 3-(3-oxo-2H-benzo[b][1,4]oxazin-4(3H)-yl)propanoate] |  |  | 0.38 | 13 µM | > 100 µM |  | 
O=C(CCN1C(=O)COc2ccccc21)N1CCCC1 [Compound 17, 4-(3-Oxo-3-(pyrrolidin-1-yl)propyl)-2H-benzo[b][1,4]oxazin-3(4H)-one] |  |  | 0.34 | 11 µM | > 100 µM |  | 
CN(C)C(=O)CCN1C(=O)COc2ccccc21 [Compound 18, N,N-Dimethyl-3-(3-oxo-2H-benzo[b][1,4]oxazin-4(3H)-yl)propanamide] |  |  |  | 50 µM | > 100 µM |  | 
CN(C)C(=O)CN1C(=O)COc2ccccc21 [Compound 19, N,N-Dimethyl-2-(3-oxo-2H-benzo[b][1,4]oxazin-4(3H)-yl)acetamide] |  |  |  | > 100 µM | > 100 µM |  | 
CNC(=O)CN1C(=O)COc2ccccc21 [Compound 20, N-Methyl-2-(3-oxo-2H-benzo[b][1,4]oxazin-4(3H)-yl)acetamide] |  |  |  | > 100 µM | > 100 µM |  | 

Structure (SMILES) | EC50 (T. brucei) | EC50 (hMRC5) | LE TbNMT (ligand efficiency) (TbNMT) | IC50 (TbNMT; read-out: IC50 TbNMT) | IC50 (hNMT) | IC50 (TbNMT; IC50 TbNMT) | improvement in potency at TbNMT (TbNMT; relative to parent/starting compound)
O=C(CN1C(=O)COc2ccccc21)N1CCCC1 [Compound 21, 4-(2-Oxo-2-(pyrrolidin-1-yl)ethyl)-2H-benzo[b][1,4]oxazin-3(4H)-one] |  |  |  | > 100 µM |  |  | 
O=C1COc2ccccc2N1Cc1nc2ccccc2o1 [Compound 22, 4-(Benzo[d]oxazol-2-ylmethyl)-2H-benzo[b][1,4]oxazin-3(4H)-one] |  |  | 0.31 | 24 µM | > 100 µM |  | 
Cc1cc(CN2C(=O)COc3ccccc32)no1 [Compound 23, 4-((5-Methylisoxazol-3-yl)methyl)-2H-benzo[b][1,4]oxazin-3(4H)-one] |  |  | 0.43 | 2.9 µM | > 100 µM |  | 
Cc1nc(CN2C(=O)COc3ccccc32)cs1 [Compound 24, 4-((2-Methylthiazol-4-yl)methyl)-2H-benzo[b][1,4]oxazin-3(4H)-one] |  |  | 0.33 | 44 µM | > 100 µM |  | 
O=C1COc2ccccc2N1Cc1ccccn1 [Compound 25, 4-(Pyridin-2-ylmethyl)-2H-benzo[b][1,4]oxazin-3(4H)-one] |  |  | 0.38 | 22 µM | > 100 µM |  | 
O=C1COc2ccccc2N1Cc1ccncc1 [Compound 26, 4-(Pyridin-4-ylmethyl)-2H-benzo[b][1,4]oxazin-3(4H)-one] |  |  |  | > 100 µM | > 100 µM |  | 
Cc1noc(CN2C(=O)COc3ccccc32)n1 [Compound 27, 4-((3-Methyl-1,2,4-oxadiazol-5-yl)methyl)-2H-benzo[b][1,4]oxazin-3(4H)-one] |  |  |  | > 100 µM | > 100 µM |  | 
Cc1nc(CN2C(=O)COc3ccccc32)no1 [Compound 28, 4-((5-Methyl-1,2,4-oxadiazol-3-yl)methyl)-2H-benzo[b][1,4]oxazin-3(4H)-one] |  |  | 0.40 | 7 µM | > 100 µM |  | 
CC(C)Cc1nc(CN2C(=O)COc3ccccc32)no1 [Compound 29, 4-((5-Isobutyl-1,2,4-oxadiazol-3-yl)methyl)-2H-benzo[b][1,4]oxazin-3(4H)-one] |  |  | 0.32 | 18 µM | > 100 µM |  | 
CC(C)Cc1cc(CN2C(=O)COc3ccccc32)no1 [Compound 30, 4-((5-Isobutylisoxazol-3-yl)methyl)-2H-benzo[b][1,4]oxazin-3(4H)-one] |  |  | 0.34 | 9 µM | 30 µM |  | 
Cc1cccc(CN2C(=O)COc3ccccc32)n1 [Compound 31, 4-((6-Methylpyridin-2-yl)methyl)-2H-benzo[b][1,4]oxazin-3(4H)-one] |  |  | 0.31 | 41 µM | 69 µM |  | 
Cn1ccc(CN2C(=O)COc3ccccc32)n1 [Compound 32, 4-((1-Methyl-1H-pyrazol-3-yl)methyl)-2H-benzo[b][1,4]oxazin-3(4H)-one] |  |  |  | 80 µM | > 100 µM |  | 
Cc1cc(CN2C(=O)C(C)Oc3ccccc32)no1 (stereo not drawn) [Compound 34, 2-Methyl-4-((5-methylisoxazol-3-yl)methyl)-2H-benzo[b][1,4]oxazin-3(4H)-one] |  |  |  | > 100 µM | > 100 µM |  | 
Cc1cc(CN2C(=O)COc3ccc(Cl)cc32)no1 [Compound 35, 6-Chloro-4-((5-methylisoxazol-3-yl)methyl)-2H-benzo[b][1,4]oxazin-3(4H)-one] |  |  |  | > 100 µM | > 100 µM |  | 
Cc1cc(CN2C(=O)COc3cc(Cl)ccc32)no1 [Compound 36, 7-Chloro-4-((5-methylisoxazol-3-yl)methyl)-2H-benzo[b][1,4]oxazin-3(4H)-one] |  |  | 0.37 | 7.1 µM | > 100 µM |  | 
Cc1cc(CN2C(=O)COc3cc(Br)ccc32)no1 [Compound 37, 7-Bromo-4-((5-methylisoxazol-3-yl)methyl)-2H-benzo[b][1,4]oxazin-3(4H)-one] |  |  | 0.37 | 6.4 µM | > 100 µM |  | 
Cc1cc(CN2C(=O)COc3c(Br)cccc32)no1 [Compound 38, 8-Bromo-4-((5-methylisoxazol-3-yl)methyl)-2H-benzo[b][1,4]oxazin-3(4H)-one] |  |  | 0.37 | 11 µM | > 100 µM |  | 
Cc1cc(CN2C(=O)COc3cc(CCCOC4CCNCC4)ccc32)no1 [Compound 43, 4-((5-Methylisoxazol-3-yl)methyl)-7-(3-(piperidin-4-yloxy)propyl)-2H-benzo[b][1,4]oxazin-3(4H)-one] | 0.15 µM | 22 µM |  |  |  |  | 
